One test has as its target T1, ER-α in MCF-7 cells (Homo sapiens, UniProt P03372).
T1 construct: endogenous in cells; host or cells: MCF-7
T1 sequence (P03372 1-595): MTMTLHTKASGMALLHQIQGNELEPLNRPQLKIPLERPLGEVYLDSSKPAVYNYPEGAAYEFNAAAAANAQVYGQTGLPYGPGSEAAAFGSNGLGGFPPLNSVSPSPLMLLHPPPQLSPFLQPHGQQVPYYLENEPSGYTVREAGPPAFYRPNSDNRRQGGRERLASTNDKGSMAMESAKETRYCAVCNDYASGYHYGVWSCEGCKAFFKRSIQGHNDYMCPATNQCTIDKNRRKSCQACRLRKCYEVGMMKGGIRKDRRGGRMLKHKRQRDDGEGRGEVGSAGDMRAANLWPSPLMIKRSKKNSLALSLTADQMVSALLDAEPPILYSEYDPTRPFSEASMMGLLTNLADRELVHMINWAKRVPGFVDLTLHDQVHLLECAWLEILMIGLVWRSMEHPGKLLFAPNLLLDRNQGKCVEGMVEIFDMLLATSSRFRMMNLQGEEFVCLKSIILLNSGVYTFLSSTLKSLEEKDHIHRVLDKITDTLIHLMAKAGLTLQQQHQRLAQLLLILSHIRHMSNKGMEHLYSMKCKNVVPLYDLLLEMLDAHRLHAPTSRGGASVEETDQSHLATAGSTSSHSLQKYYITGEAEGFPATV
The test is described as follows: Breast Cancer Cell ER-α In Cell Western Assay (SP1). It counts as cell-based. The settings on record: 4 or 24 hr post compound addition; for Emax: MCF7, SP1 antibody, read-out: ER-α In Cell Western Assay (SP1) Max Response; for DC50: SP1 antibody, read-out: ER-α In Cell Western Assay (SP1) IC50. The essentials:
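ER-α levels quantified by in-cell western: SP1 signal normalised to DRAQ5 DNA stain, relative to untreated cells (% ER). Compounds at 0.3–0.000003 μM final, 11-point semilog series, 4 or 24 h exposure of MCF-7 cells grown in charcoal-stripped serum.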

The test system of a further test is MCF-7 cells. The test is described as follows: Breast Cancer Cell Viability Assays (MCF-7, CellTiter-Glo). Format: cell-based. The conditions noted are these: 5 days' compound exposure; for IC50: Homo sapiens, MCF7, 120 h. The essentials: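 Percent viability, background-subtracted against untreated wells, was taken from CellTiter-Glo luminescence after 5 days' exposure of MCF-7 cells. Compounds were tested at eleven semilog concentrations, final 0.3–0.000003 μM, in RPMI containing 10% FBS.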
For orientation: Cellular ATP, detected with luciferase, serves as a proxy for viable cell number.

Some results are limits rather than exact numbers.

In general, IC50 refers to the midpoint of a concentration-inhibition curve. A lower IC50 goes with inhibition by little substance. In the case of `O=C(O)/C=C/c1ccc(/C(=C(\c2ncc(C(F)(F)F)cc2Cl)C2CCC2)c2ccc3scnc3c2)cc1` [Example 244, (E)-3-(4-((E)-1-(Benzo[d]thiazol-5-yl)-2-(3-chloro-5-(trifluoromethyl)pyridin-2-yl)-2-cyclobutylvinyl)phenyl)acrylic acid], on ER-α in MCF-7 cells, the Emax was not below 40% and the DC50 was not above 100 nM. For the same molecule, in the test on MCF-7 cells, the “MCF7 Viability Assay Max Response” value is on record as “++ (++ = a single % value ≧ 40%)” and the IC50 was not above 100 nM.
In the case of `COc1cc(C)c(/C(=C(\c2ccc(/C=C/C(=O)O)cc2)c2cccc3[nH]nc(F)c23)C2CCC2)cn1` [Example 245, (E)-3-(4-((E)-2-Cyclobutyl-1-(3-fluoro-1H-indazol-4-yl)-2-(6-methoxy-4-methylpyridin-3-yl)vinyl)phenyl)acrylic acid], at ER-α in MCF-7 cells, the Emax is not below 40% and the DC50 was not above 100 nM. Also, in the test with MCF-7 cells, the “MCF7 Viability Assay Max Response” value is reported as “++ (++ = a single % value ≧ 40%)” and the IC50 is not above 100 nM.
For `O=C(O)/C=C/c1ccc(/C(=C(\c2ncccc2Cl)C2CCC2)c2cccc3[nH]nc(F)c23)cc1` [Example 246, (E)-3-(4-((E)-2-(3-Chloropyridin-2-yl)-2-cyclobutyl-1-(3-fluoro-1H-indazol-4-yl)vinyl)phenyl)acrylic acid], on ER-α in MCF-7 cells, the Emax was not below 40% and the DC50 was not above 100 nM. Moreover, in the test with MCF-7 cells, the “MCF7 Viability Assay Max Response” value is on record as “++ (++ = a single % value ≧ 40%)” and the IC50 was not above 100 nM.
With `N#Cc1cccnc1/C(=C(\c1ccc(/C=C/C(=O)O)cc1)c1ccc2[nH]nc(F)c2c1)C1CCC1` [Example 247, (E)-3-(4-((E)-2-(3-Cyanopyridin-2-yl)-2-cyclobutyl-1-(3-fluoro-1H-indazol-5-yl)vinyl)phenyl)acrylic acid], on ER-α in MCF-7 cells, the Emax was not below 40% and the DC50 was not above 100 nM. For the same molecule, in the test on MCF-7 cells, the “MCF7 Viability Assay Max Response” value is “++ (++ = a single % value ≧ 40%)” and the IC50 was not above 100 nM.
For the molecule `N#Cc1n[nH]c2ccc(/C(=C(/c3ccc(F)cc3Cl)C3CCC3)c3ccc(/C=C/C(=O)O)cc3)cc12` [Example 248, (E)-3-(4-((E)-2-(2-Chloro-4-fluorophenyl)-1-(3-cyano-1H-indazol-5-yl)-2-cyclobutylvinyl)phenyl)acrylic acid], on ER-α in MCF-7 cells, the Emax is not below 40% and the DC50 was not above 100 nM. Also, in the test on MCF-7 cells, the “MCF7 Viability Assay Max Response” value is reported as “++ (++ = a single % value ≧ 40%)” and the IC50 was not above 100 nM.
Turning to `N#Cc1cc(Cl)cnc1/C(=C(\c1ccc(/C=C/C(=O)O)cc1)c1ccc2[nH]nc(F)c2c1)C1CCC1` [Example 249, (E)-3-(4-((E)-2-(5-Chloro-3 cyanopyridin-2-yl)-2-cyclobutyl-1-(3-fluoro-1H-indazol-5-yl)vinyl)phenyl)acrylic acid], at ER-α in MCF-7 cells, the Emax was not below 40% and the DC50 was not above 100 nM. Also, in the test on MCF-7 cells, the “MCF7 Viability Assay Max Response” value was “++ (++ = a single % value ≧ 40%)” and the IC50 is not above 100 nM.
Turning to `O=C(O)/C=C/c1ccc(/C(=C(\c2ncc(C(F)(F)F)cc2Cl)C2CCC2)c2ccc3[nH]nc(F)c3c2)cc1` [Example 250, (E)-3-(4-((E)-2-(3-Chloro-5-(trifluoromethyl)pyridin-2-yl)-2-cyclobutyl-1-(3-fluoro-1H-indazol-5-yl)vinyl)phenyl)acrylic acid], at ER-α in MCF-7 cells, the Emax was not below 40% and the DC50 is not above 100 nM. Further, in the test on MCF-7 cells, the “MCF7 Viability Assay Max Response” value was “++ (++ = a single % value ≧ 40%)” and the IC50 was not above 100 nM.
Regarding `O=C(O)/C=C/c1ccc(/C(=C(\c2ncc(F)cc2Cl)C2CCC2)c2ccc3[nH]nc(F)c3c2)cc1` [Example 251, (E)-3-(4-((E)-2-(3-Chloro-5-fluoropyridin-2-yl)-2-cyclobutyl-1-(3-fluoro-1H-indazol-5-yl)vinyl)phenyl)acrylic acid], on ER-α in MCF-7 cells, the Emax was not below 40% and the DC50 was not above 100 nM. Further, in the test on MCF-7 cells, the “MCF7 Viability Assay Max Response” value is “++ (++ = a single % value ≧ 40%)” and the IC50 was not above 100 nM.
Consider `O=C(O)/C=C/c1ccc(/C(=C(\c2ccc(F)cc2Cl)C2CCC2)c2ccc3[nH]nc(C(F)(F)F)c3c2)cc1` [Example 252, (E)-3-(4-((E)-2-(2-Chloro-4-fluorophenyl)-2-cyclobutyl-1-(3-(trifluoromethyl)-1H-indazol-5-yl)vinyl)phenyl)acrylic acid], for which, at ER-α in MCF-7 cells, the Emax was not below 40% and the DC50 was not above 100 nM. Besides, in the test on MCF-7 cells, the “MCF7 Viability Assay Max Response” value is recorded as “++ (++ = a single % value ≧ 40%)” and the IC50 is more than 100 nM.
The corresponding values for `O=C(O)/C=C/c1ccc(/C(=C(\c2ncc(F)cc2Cl)C2CCC2)c2ccc3[nH]nc(F)c3c2)cc1F` [Example 253, (E)-3-(4-((Z)-2-(3-Chloro-5-fluoropyridin-2-yl)-2-cyclobutyl-1-(3-fluoro-1H-indazol-5-yl)vinyl)-2-fluorophenyl)acrylic acid] are not below 40%, not above 100 nM, “++ (++ = a single % value ≧ 40%)” and not above 100 nM.
The corresponding values for `O=C(O)/C=C/c1ccc(/C(=C(\c2ncc(Cl)cc2Cl)C2CCC2)c2ccc3[nH]nc(F)c3c2)cc1F` [Example 254, (E)-3-(4-((Z)-2-Cyclobutyl-2-(3,5-dichloropyridin-2-yl)-1-(3-fluoro-1H-indazol-5-yl)vinyl)-2-fluorophenyl)acrylic acid] are not below 40%, not above 100 nM, “++ (++ = a single % value ≧ 40%)” and not above 100 nM.
The corresponding values for `CCOC(=O)/C=C/c1ccc(/C(=C(\c2ncc(Cl)cc2Cl)C2CCC2)c2ccc3[nH]nc(F)c3c2)cc1F` [Example 255, (E)-Ethyl 3-(4-((Z)-2-cyclobutyl-2-(3,5-dichloropyridin-2-yl)-1-(3-fluoro-1H-indazol-5-yl)vinyl)-2-fluorophenyl)acrylate] are not below 40%, not above 100 nM, “+ (+ = a single % value < 40%)” and not above 100 nM.
On to `COc1ccc(/C(=C(\c2ccc(/C=C/C(=O)O)c(F)c2)c2ccc3[nH]nc(F)c3c2)C2CCC2)c(Cl)c1` [Example 256, (E)-3-(4-((Z)-2-(2-Chloro-4-methoxyphenyl)-2-cyclobutyl-1-(3-fluoro-1H-indazol-5-yl)vinyl)-2-fluorophenyl)acrylic acid], for which, on ER-α in MCF-7 cells, the Emax was not below 40% and the DC50 was not above 100 nM. Also, in the test on MCF-7 cells, the “MCF7 Viability Assay Max Response” value is “++ (++ = a single % value ≧ 40%)” and the IC50 was not above 100 nM.
As to `O=C(O)/C=C/c1ccc(/C(=C(\c2ncc(Cl)cc2C(F)(F)F)C2CCC2)c2ccc3[nH]nc(F)c3c2)cc1` [Example 257, (E)-3-(4-((E)-2-(5-Chloro-3-(trifluoromethyl)pyridin-2-yl)-2-cyclobutyl-1-(3-fluoro-1H-indazol-5-yl)vinyl)phenyl)acrylic acid], at ER-α in MCF-7 cells, the Emax is not below 40% and the DC50 was not above 100 nM. Further, in the test on MCF-7 cells, the “MCF7 Viability Assay Max Response” value is given as “++ (++ = a single % value ≧ 40%)” and the IC50 is not above 100 nM.
For the molecule `O=C(O)/C=C/c1ccc(/C(=C(\c2cnc(C(F)(F)F)cc2C(F)(F)F)C2CCC2)c2ccc3[nH]nc(F)c3c2)cc1` [Example 258, (E)-3-(4-((E)-2-(4,6-bis(Trifluoromethyl)pyridin-3-yl)-2-cyclobutyl-1-(3-fluoro-1H-indazol-5-yl)vinyl)phenyl)acrylic acid], at ER-α in MCF-7 cells, the Emax is not below 40% and the DC50 was not above 100 nM. Also, in the test on MCF-7 cells, the “MCF7 Viability Assay Max Response” value is given as “++ (++ = a single % value ≧ 40%)” and the IC50 is not above 100 nM.
On to `O=C(O)/C=C/c1ccc(/C(=C(\c2ncccc2Cl)C2CCC2)c2ccc3[nH]nc(F)c3c2)cn1` [Example 259, (E)-3-(5-((Z)-2-(3-Chloropyridin-2-yl)-2-cyclobutyl-1-(3-fluoro-1H-indazol-5-yl)vinyl)pyridin-2-yl)acrylic acid], for which, on ER-α in MCF-7 cells, the Emax was not below 40% and the DC50 was not above 100 nM. Further, in the test with MCF-7 cells, the “MCF7 Viability Assay Max Response” value is “++ (++ = a single % value ≧ 40%)” and the IC50 was not above 100 nM.
With `O=C(O)/C=C/c1ccc(/C(=C(\c2ncccc2C(F)(F)F)C2CCC2)c2ccc3[nH]nc(F)c3c2)cn1` [Example 260, (E)-3-(5-((Z)-2-Cyclobutyl-1-(3-fluoro-1H-indazol-5-yl)-2-(3-(trifluoromethyl)pyridin-2-yl)vinyl)pyridin-2-yl)acrylic acid], on ER-α in MCF-7 cells, the Emax is not below 40% and the DC50 is not above 100 nM. In the test on MCF-7 cells, the “MCF7 Viability Assay Max Response” value is “++ (++ = a single % value ≧ 40%)” and the IC50 is not above 100 nM.

(Values after patent publication US9499538B2, “Estrogen receptor modulators and uses thereof” (Seragon Pharmaceuticals, Inc., priority 2012, dated 2016).)
